Data as given in patent US20170049786A1, “MTOR PATHWAY INHIBITORS FOR TREATING OCULAR DISORDERS” (Santen Pharmaceutical Co., Ltd., priority 2009, published 2017).
“And” between values parts separate entries of the source, which are not always exact repeats. Identical values can stand only once. Like-named read-outs stand apart in the source and are kept apart here.

Tests used:
[1] = system: Human umbilical vein endothelial cells (HUVEC); experiment: Inhibition of VEGF-induced proliferation, BrdU incorporation; type: cell-based; conditions: for IC50: Homo sapiens, 12.5 ng/mL VEGF
Description: The objective of this study was to evaluate the anti-proliferative effects of various therapeutic agents (everolimus, sirolimus, tacrolimus, temsirolimus, zotarolimus, PP242, PP30, Palomid 529, WYE-354, and KU-0063794) by measuring bromodeoxyuridine (BrdU) incorporation into cellular DNA. The therapeutic agents were dissolved directly into class A vials in less than 1% DMSO. Human umbilical vein endothelial cells (HUVEC) were obtained from Lonza (Catalog No. CC-2517). Vascular endothelial growth factor (VEGF) was obtained from R&D Systems (Catalog No. 293-VE-010). A BrdU Assay kit was obtained from Calbiochem (Catalog No. Q1A58). The inhibitory effect of rapamycin on HUVEC proliferation has been described (Kwon et al., Invest Opththamol Vis Sci, 46:454-4699, 2005).
Early passage HUVEC were plated at 2,000 cells/well in 96-well plates for 24 hours. The cells were then starved for 24 hours by replacing medium with medium lacking serum and HUVEC medium growth factors. After overnight starvation, wells were inoculated with (i) medium containing 2.5% serum and 12.5 ng/mL VEGF, (ii) medium with 12.5 ng/mL VEGF, (iii) medium with 2.5% serum or (iv) medium without serum or VEGF. Control compounds and test compounds were added at eight to eleven concentrations of each compound. All wells were set up in four replicates. BrdU was added to the medium 72 hours after feeding. After the overnight labeling, the cells were assayed according the manufacturers instructions and the plates were read at OD450. Average absorbance for replicate wells was used to calculate IC50 for the compounds of Table 72-1.

[2] = Solubility profiles of therapeutic agents (Table 71-1); conditions: for physical state when formulated in PEG400: 3% therapeutic agent and 97% PEG400
Description: Various therapeutic agents (e.g., rapalogs and/or mTOR inhibitors) were formulated as liquid solutions or suspensions for ophthalmic administration by injection. The therapeutic agents of exemplary formulations were as follows: everolimus, sirolimus, temsirolimus, zotarolimus, PP242, PP30 and palomid 529.
Liquid formulations containing 3% therapeutic agent (everolimus, sirolimus, temsirolimus or zotarolimus) and 97% PEG400 were prepared.

[3] = system: retinal and choroidal neovascularization (RNV and CNV); experiment: Inhibition of retinal and choroidal neovascularization in vivo (subretinal […]/bFGF/VEGF model, fluorescein angiography); set-up: species or system New Zealand white rabbits; conditions: six microliter intravitreal dose of 2% agent in 4% ethanol, 94% PEG400 on Day 8; compared with 50 microliter AVASTIN (25 mg/ml)
Description: The objective of this study was to evaluate the effects of various therapeutic agents (everolimus, sirolimus, temsirolimus, and zotarolimus) on retinal and choroidal neovascularization (RNV and CNV) in a rabbit model (Qiu et al., Exp Eye Res, 83:141-152, 2006). Liquid formulations containing 2% (w/w) of the therapeutic agents were prepared in 4% (w/w) ethanol, and 94% (w/w) PEG400. As a positive control, a formulation containing 25 mg/ml AVASTIN was used. As a negative control, vehicle (4% ethanol, 96% PEG400) was used. Recombinant human basic fibroblast growth factor (bFGF) and vascular endothelial growth factor (VEGF) were obtained from R&D Systems. New Zealand white rabbits were used in this study.
On Day 1, the right eye of each animal received a subretinal injection of 10-20 μL of […] containing 10 μg/0.1 mL b-FGF and 2 μg/0.1 mL VEGF. […]-containing formulations are kept on ice until administered. Briefly, the conjunctiva was opened and a small slit in the sclera was made to expose the vitreous. A cannula connected to a tuberculin syringe was inserted into the subretinal space and the […]/growth factor combination was delivered. The scleral and conjunctival opening were closed with a 7-0 Vicryl suture. […]

[4] = cited from earlier work
in vivo = conditions: rabbit
Description: Both eyes (or one eye depending on the study) of each animal received one or two drops (40 μl per drop) of the studied formulations using a calibrated pipette on day 0 (day of dosing).
For Tables 3-6, the solution of Example 46 (formulation #340) was administered two drops twice a day on both eyes, one time for Group I, two drops once a day on one eye, one time for Group II, and two drops once a day on both eyes for 6 days in Group III. In Group II, the right eye (OD) but not the left eye (OS) received eye drops. In a further study, one drop of the formulation #340 (40 μL containing 880 μg rapamycin) was administered on day zero.
For FIGS. 5 and 6, the aqueous rapamycin-containing formulations #329 and #330 of Table 1 were administered two drops once or twice a day for up to 28 days. For FIGS. 7 and 8, the aqueous rapamycin-containing formulations #331 and #332 of Table 1 were administered two drops twice a day for 6 days.
For FIG. 10A-B one drop of an aqueous or a non-aqueous formulation containing about 0.2% rapamycin were administered to both eyes of rabbit subjects once a day for six days (day 0 to day 6). As used herein, the terms “aqueous” and “hydrophilic” refer to formulations in which the dominant component is an aqueous compound such as water (e.g., formulations #342 and #342 of Table 1), while the terms “non-aqueous” and “lipophilic” refer to formulation in which the dominant component is a non-aqueous compound such as PEG 400 (e.g., formulations #344 and #345 of Table 1). Rapamycin concentrations in the cornea, retina choroid and blood were measured at day 7 and day 14.
For FIG. 11 one drop of a non-aqueous formulation containing about 0.2% rapamycin (e.g., formulations #344 or #345) was administered to both eyes of rabbit subjects once a day on day 0, 7, 14 and 21. Rapamycin concentrations in the cornea, retina choroid and aqueous humor were measured on days 3, 10, 17, 24 and 28.

[5] = Pilot pharmacokinetic study, intravitreal injection of rapalog/mTOR inhibitor formulations; concentration in the vitreous (FIGS. 17, 19, 20); conditions: 330 mcg by intravitreal injection of 10 μl of 3% agent in 97% PEG400; FIG. 17
Description: In a pilot pharmacokinetic study, 330 mcg of the therapeutic agent was administered to rabbits by intravitreal injection of a 10 μl volume.
In a pilot pharmacokinetic study, 220 mcg of the therapeutic agent was administered to rabbits by intravitreal injection of a 10 μl volume.

COc1ccc(COc2cc3oc(=O)c4cc(C(C)O)ccc4c3cc2OC)cc1 (stereo not shown) [palomid 529, 8-(1-hydroxy-ethyl)-2-methoxy-3-(4-methoxy-benzyloxy)-benzo[c]chromen-6-one]
potency as inhibitor of VEGF-induced proliferation relative to the other compounds tested [1]: less potent inhibitors of VEGF-induced proliferation than the other compounds tested

CC(C)n1nc(-c2cccc(C(=O)NC3=NCCS3)c2)c2c(N)ncnc21 [PP30]
Solubility, PEG 400 [2]: >13 mg/g and <22 mg/g

C=CC[C@@H]1/C=C(\C)C[C@H](C)C[C@H](OC)[C@H]2O[C@@](O)(C(=O)C(=O)N3CCCC[C@H]3C(=O)O[C@H](/C(C)=C/[C@@H]3CC[C@@H](O)[C@H](OC)C3)[C@H](C)[C@@H](O)CC1=O)[C@H](C)C[C@@H]2OC [tacrolimus]
potency as inhibitor of VEGF-induced proliferation relative to the other compounds tested [1]: less potent inhibitors of VEGF-induced proliferation than the other compounds tested | IC50 [1]: 324000 nM

CO[C@H]1C[C@@H]2CC[C@@H](C)[C@@](O)(O2)C(=O)C(=O)N2CCCC[C@H]2C(=O)O[C@H]([C@H](C)C[C@@H]2CC[C@H](n3cnnn3)[C@H](OC)C2)CC(=O)[C@H](C)/C=C(\C)[C@@H](O)[C@@H](OC)C(=O)[C@H](C)C[C@H](C)/C=C/C=C/C=C/1C [zotarolimus]
inhibition of neovascular disease (fluorescein angiography grading) [3]: inhibited neovascular disease to a greater extent than a 50 microliter dose of AVASTIN | Solubility, DMSO ([4]; literature values): >1 mg/mL | Solubility, Ethanol ([4]; literature values): >100 mg/mL | Solubility, Aqueous ([4]; pH 6.5, literature value): 0.47 mcg/ml* pH 6.5 | Solubility, Aqueous ([4]; pH 7.4, literature value): 0.53 mcg/ml* pH 7.4 | IC50 [1]: 1.78 nM

CO[C@H]1C[C@@H]2CC[C@@H](C)[C@@](O)(O2)C(=O)C(=O)N2CCCC[C@H]2C(=O)O[C@H]([C@H](C)C[C@@H]2CC[C@@H](OC(=O)C(C)(CO)CO)[C@H](OC)C2)CC(=O)[C@H](C)/C=C(\C)[C@@H](O)[C@@H](OC)C(=O)[C@H](C)C[C@H](C)/C=C/C=C/C=C/1C [temsirolimus]
Solubility, Aqueous ([4]; literature values): 10 to 20 µg/mL | Solubility, DMSO ([4]; literature values): >200 mg/mL | Solubility, Ethanol ([4]; literature values): >200 mg/mL | IC50 [1]: 15.9 nM

CC(C)n1nc(-c2cc3cc(O)ccc3[nH]2)c2c(N)ncnc21 [PP242, 2-(4-Amino-1-isopropyl-1H-pyrazolo[3,4-d]pyrimidin-3-yl)-1H-indol-5-ol]
Solubility, PEG 400 [2]: >126 mg/g

CO[C@H]1C[C@@H]2CC[C@@H](C)[C@@](O)(O2)C(=O)C(=O)N2CCCC[C@H]2C(=O)O[C@H]([C@H](C)C[C@@H]2CC[C@@H](OCCO)[C@H](OC)C2)CC(=O)[C@H](C)/C=C(\C)[C@@H](O)[C@@H](OC)C(=O)[C@H](C)C[C@H](C)/C=C/C=C/C=C/1C [everolimus]
Solubility, PEG 400 [2]: >624 mg/g | physical state when formulated in PEG400 [2]: went into solution | Solubility, Aqueous ([4]; literature values): 1 to 10.0 µg/mL | Solubility, DMSO ([4]; literature values): >100 mg/mL | Solubility, Ethanol ([4]; literature values): >100 mg/mL | IC50 [1]: 22.4 nM

CO[C@H]1C[C@@H]2CC[C@@H](C)[C@@](O)(O2)C(=O)C(=O)N2CCCC[C@H]2C(=O)O[C@H]([C@H](C)C[C@@H]2CC[C@@H](O)[C@H](OC)C2)CC(=O)[C@H](C)/C=C(\C)[C@@H](O)[C@@H](OC)C(=O)[C@H](C)C[C@H](C)/C=C/C=C/C=C/1C [sirolimus, rapamycin]
Solubility, DMSO [2]: >472 mg/g | Solubility, PEG 400 [2]: 3 mg/g | physical state when formulated in PEG400 [2]: suspension | Rapamycin level, Blood (in vivo; 1 day): 2.84 ng/mL | Rapamycin level, Blood (in vivo; 3 day): 27.29 ng/mL | concentration at 1 day (in vivo; Rapamycin level, Blood): 4.63 ng/mL | concentration at 3 day (in vivo; Rapamycin level, Blood): 37.1 ng/mL | concentration at 8 day (in vivo; Rapamycin level, Blood): 15.5 ng/mL | concentration at 10 day (in vivo; Rapamycin level, Blood): 7.67 ng/mL | concentration at 12 day (in vivo; Rapamycin level, Blood): 2.88 ng/mL | concentration at 14 day (in vivo; Rapamycin level, Blood): 48.3 ng/mL | concentration at 8 day (in vivo; Rapamycin level, Cornea): 169 ng/g | concentration at 10 day (in vivo; Rapamycin level, Cornea): 110 ng/g | concentration at 12 day (in vivo; Rapamycin level, Cornea): 97.9 ng/g | concentration at 14 day (in vivo; Rapamycin level, Cornea): 84.2 ng/g | Solubility, Ethanol ([4]; literature value): >90 mg/g | Solubility, Aqueous ([4]; literature values): 1 to 2.6 µg/mL | IC50 [1]: 29.5 nM | concentration remaining in the vitreous after a single injection [5]: Sustained concentrations
